According to PubChem BioAssay AID330 (DTP/NCI, 2004):
Several values for one entry are separate records, joined by “and”; a condition that tells them apart may be missing. Equal values may be shown once. Toxic doses and inconclusive results are not listed.

Test system: P388 leukemia ip, CD2F1 mice, survival T/C
Test: NCI In Vivo Anticancer Drug Screen. Data for tumor model P388 Leukemia (intraperitoneal) in CD2F1 (CDF1) mice
Conditions: endpoint: median survival time, higher = longer survival
How it was run: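 Mice carrying the transplanted tumor received test compound or vehicle. Survival was recorded in each group, and the value is the treated-group measurement divided by that of the vehicle-treated control group.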

[1] = dose: 50.0 mg/kg/injection, schedule: Q01DX005 (ip), vehicle: saline with Tween-80
[2] = dose: 50.0 mg/kg/injection, schedule: Q01DX009 (ip), vehicle: saline with Tween-80
[3] = dose: 100.0 mg/kg/injection, schedule: Q01DX009 (ip), vehicle: saline with Tween-80
[4] = dose: 200.0 mg/kg/injection, schedule: Q01DX009 (ip), vehicle: saline with Tween-80
[5] = dose: 60.0 mg/kg/injection, schedule: Q01DX005 (ip), vehicle: saline with Tween-80
[6] = dose: 120.0 mg/kg/injection, schedule: Q01DX005 (ip), vehicle: saline with Tween-80
[7] = dose: 240.0 mg/kg/injection, schedule: Q01DX005 (ip), vehicle: saline with Tween-80
[8] = dose: 50.0 mg/kg/injection, schedule: Q04DX003 (ip), vehicle: saline
[9] = dose: 100.0 mg/kg/injection, schedule: Q04DX003 (ip), vehicle: saline
[10] = dose: 25.0 mg/kg/injection, schedule: Q04DX003 (ip), vehicle: saline
[11] = dose: 100.0 mg/kg/injection, schedule: Q04DX003 (ip), vehicle: Klucel (hydroxypropylcellulose) (HPC)
[12] = dose: 200.0 mg/kg/injection, schedule: Q04DX003 (ip), vehicle: Klucel (hydroxypropylcellulose) (HPC)

C/C(CC1C(CCO)C1(C)C)=N\NC(N)=O (configuration not stated)
T/C (dose: 60.0 mg/kg/injection, schedule: Q01DX005 (ip), vehicle: Klucel (hydroxypropylcellulose) (HPC)): 98 % of control
T/C (dose: 120.0 mg/kg/injection, schedule: Q01DX005 (ip), vehicle: Klucel (hydroxypropylcellulose) (HPC)): 100 % of control
T/C (dose: 240.0 mg/kg/injection, schedule: Q01DX005 (ip), vehicle: Klucel (hydroxypropylcellulose) (HPC)): 106 % of control

O=[N+]([O-])c1cccn2nc(COCCO)nc12
T/C (dose: 12.5 mg/kg/injection, schedule: Q01DX005 (ip), vehicle: saline with Tween-80): 97 % of control
T/C (dose: 25.0 mg/kg/injection, schedule: Q01DX005 (ip), vehicle: saline with Tween-80): 94 % of control
T/C [1]: 97 % of control
T/C (dose: 100.0 mg/kg/injection, schedule: Q01DX005 (ip), vehicle: saline): 113 % of control
T/C (dose: 200.0 mg/kg/injection, schedule: Q01DX005 (ip), vehicle: saline): 109 % of control

O=S1(=O)CC(N2CCCCC2)C=C(c2ccccc2)O1 (configuration not stated)
T/C [2]: 103 % of control
T/C [3]: 98 % of control
T/C [4]: 95 % of control

CC(=O)OC(CO)C(OC(C)=O)C(CNc1nc(N)[nH]c(=O)c1[N+](=O)[O-])OC(C)=O (configuration not stated)
T/C [5]: 101 % of control
T/C [6]: 92 % of control
T/C [7]: 92 % of control

COC(=O)C1(CC(C)=O)NC(=S)NC(=O)C1C#N (configuration not stated)
T/C (dose: 60.0 mg/kg/injection, schedule: Q01DX005 (ip), vehicle: saline): 100 % of control
T/C (dose: 120.0 mg/kg/injection, schedule: Q01DX005 (ip), vehicle: saline): 96 % of control
T/C (dose: 240.0 mg/kg/injection, schedule: Q01DX005 (ip), vehicle: saline): 97 % of control

COC(=O)[C@@H]1c2cc3c(c(O)c2[C@@H](OC)C[C@@]1(C)O)C(=O)c1c(O)cc2c(c1C3=O)OC1O[C@@]2(C)[C@H](O)[C@@H](N(C)C)[C@@H]1O
T/C (dose: 6.25 mg/kg/injection, schedule: Q01DX010 (ip), vehicle: saline): 110 % of control
T/C (dose: 12.5 mg/kg/injection, schedule: Q01DX009 (ip), vehicle: other): 171 % of control
T/C (dose: 12.5 mg/kg/injection, schedule: Q01DX009 (ip), vehicle: saline): 156 % of control
T/C (dose: 12.5 mg/kg/injection, schedule: Q01DX010 (ip), vehicle: saline): 110 % of control
T/C (dose: 25.0 mg/kg/injection, schedule: Q01DX009 (ip), vehicle: other): 176 % of control
T/C (dose: 25.0 mg/kg/injection, schedule: Q01DX009 (ip), vehicle: saline): 159 % of control
T/C (dose: 25.0 mg/kg/injection, schedule: Q01DX010 (ip), vehicle: saline): 120 % of control
T/C (dose: 50.0 mg/kg/injection, schedule: Q01DX009 (ip), vehicle: other): 171 % of control
T/C (dose: 50.0 mg/kg/injection, schedule: Q01DX009 (ip), vehicle: saline): 98 % of control
T/C (dose: 50.0 mg/kg/injection, schedule: Q01DX010 (ip), vehicle: saline): 110 % of control
T/C (dose: 50.0 mg/kg/injection, schedule: Q04DX003 (ip), vehicle: other): 153 % of control
T/C [8]: 150 % of control
T/C (dose: 100.0 mg/kg/injection, schedule: Q04DX003 (ip), vehicle: other): 158 % of control
T/C [9]: 150 % of control

CC(C)(C)c1cc(-c2c3nc(c(-c4cc(C(C)(C)C)c(O)c(C(C)(C)C)c4)c4ccc([nH]4)c(-c4cc(C(C)(C)C)c(O)c(C(C)(C)C)c4)c4nc(c(-c5cc(C(C)(C)C)c(O)c(C(C)(C)C)c5)c5ccc2[nH]5)C=C4)C=C3)cc(C(C)(C)C)c1O
T/C [5]: 90 % of control
T/C [6]: 88 % of control
T/C [7]: 88 % of control

COc1ccc(-c2cc3cc(OC)c(OC)cc3c[n+]2C)cc1OC
T/C [10]: 96 % of control
T/C [8]: 94 % of control
T/C [9]: 104 % of control

Nc1cccc(CC(=O)Nc2ccccc2)c1
T/C (dose: 100.0 mg/kg/injection, schedule: Q04DX002 (ip), vehicle: Klucel (hydroxypropylcellulose) (HPC)): 100 % of control
T/C (dose: 200.0 mg/kg/injection, schedule: Q04DX002 (ip), vehicle: Klucel (hydroxypropylcellulose) (HPC)): 97 % of control

CCCCCCCCCCCCCCC(O)c1cccc(OC)c1 (configuration not stated)
T/C (dose: 7.5 mg/kg/injection, schedule: Q01DX009 (ip), vehicle: saline with Tween-80): 109 % of control
T/C (dose: 15.0 mg/kg/injection, schedule: Q01DX009 (ip), vehicle: saline with Tween-80): 113 % of control
T/C (dose: 30.0 mg/kg/injection, schedule: Q01DX009 (ip), vehicle: saline with Tween-80): 109 % of control

O=C(CCl)OCCN1Cc2nc3sc4c(c3c(=O)n2CC1=O)CCCC4
T/C [2]: 97 % of control
T/C [3]: 94 % of control
T/C [4]: 112 % of control

c1ccc2c(c1)nc1cc(NC3CCCCC3)c(=NC3CCCCC3)cc-1n2C1CCCCC1
T/C [5]: 87 % of control
T/C [6]: 91 % of control
T/C [7]: 89 % of control

O=C(OCc1ccccc1)c1ccc(=O)oc1
T/C [11]: 114 % of control
T/C [12]: 110 % of control

c1ccc(N=P(c2ccccc2)(c2ccccc2)c2ccccc2)cc1
T/C (dose: 25.0 mg/kg/injection, schedule: Q01DX009 (ip), vehicle: saline with Tween-80): 96 % of control
T/C [2]: 108 % of control
T/C [3]: 108 % of control

O=c1[nH]c(-c2ccc(Cl)cc2)nc2sc3c(c12)CCCC3
T/C (dose: 50.0 mg/kg/injection, schedule: Q01DX005 (ip), vehicle: Klucel (hydroxypropylcellulose) (HPC)): 86 % of control
T/C (dose: 100.0 mg/kg/injection, schedule: Q01DX005 (ip), vehicle: Klucel (hydroxypropylcellulose) (HPC)): 90 % of control
T/C (dose: 200.0 mg/kg/injection, schedule: Q01DX005 (ip), vehicle: Klucel (hydroxypropylcellulose) (HPC)): 99 % of control

Cc1ccc(S(=O)(=O)NC(=O)Nc2sc(=S)c3c(c2C#N)CCCC3)cc1
T/C [1]: 100 % of control
T/C (dose: 100.0 mg/kg/injection, schedule: Q01DX005 (ip), vehicle: saline with Tween-80): 103 % of control

Clc1ccc(C2C3CCN2CC3)cc1 (configuration not stated)
T/C (dose: 0.78 mg/kg/injection, schedule: Q01DX009 (ip), vehicle: saline): 100 % of control
T/C (dose: 1.56 mg/kg/injection, schedule: Q01DX009 (ip), vehicle: saline): 96 % of control
T/C (dose: 3.12 mg/kg/injection, schedule: Q01DX009 (ip), vehicle: saline): 94 % of control

CN(C)c1nc(OC2C(C3COC(C)(C)O3)OC3OC(C)(C)OC32)nc(N(C)C)n1 (configuration not stated)
T/C (dose: 100.0 mg/kg/injection, schedule: Q04DX003 (ip), vehicle: saline with Tween-80): 99 % of control
T/C (dose: 200.0 mg/kg/injection, schedule: Q04DX003 (ip), vehicle: saline with Tween-80): 100 % of control
T/C (dose: 400.0 mg/kg/injection, schedule: Q04DX003 (ip), vehicle: saline with Tween-80): 100 % of control

[O-]/[N+](=C\c1ccccc1)C(c1ccccc1)c1ccccc1
T/C [10]: 100 % of control
T/C [8]: 100 % of control
T/C [9]: 100 % of control

C[n+]1c(-c2ccccc2)c2cc(N)ccc2c2ccc(N)cc21
T/C (dose: 1.56 mg/kg/injection, schedule: Q04DX003 (ip), vehicle: saline with Tween-80): 106 % of control
T/C (dose: 3.13 mg/kg/injection, schedule: Q04DX003 (ip), vehicle: saline with Tween-80): 107 % of control
T/C (dose: 6.25 mg/kg/injection, schedule: Q04DX003 (ip), vehicle: saline with Tween-80): 118 % of control
T/C (dose: 25.0 mg/kg/injection, schedule: Q04DX003 (ip), vehicle: saline with Tween-80): 124 % of control

CCCC[N+](CCCC)(CCCC)CCCC.O=C([O-])[O-].O=C([O-])[O-].[Co+3].[NH-]CC[NH-]
T/C (dose: 50.0 mg/kg/injection, schedule: Q01DX009 (ip), vehicle: suspension in saline): 113 % of control and 123 % of control
T/C (dose: 100.0 mg/kg/injection, schedule: Q01DX009 (ip), vehicle: suspension in saline): 120 % of control

O=[N+]([O-])c1cccc(CNc2ccccc2)c1
T/C [11]: 101 % of control
T/C [12]: 101 % of control
T/C (dose: 400.0 mg/kg/injection, schedule: Q04DX003 (ip), vehicle: Klucel (hydroxypropylcellulose) (HPC)): 109 % of control

COc1ccccc1/C(C)=N/O
T/C [5]: 100 % of control
T/C [6]: 95 % of control
T/C [7]: 103 % of control

Cc1cc(OC(=O)c2c(C)cc(O)cc2O)cc(O)c1C(=O)O
T/C (dose: 0.25 mg/kg/injection, schedule: Q01DX009 (ip), vehicle: saline with Tween-80): 101 % of control
T/C (dose: 0.5 mg/kg/injection, schedule: Q01DX009 (ip), vehicle: saline with Tween-80): 102 % of control
T/C (dose: 1.0 mg/kg/injection, schedule: Q01DX009 (ip), vehicle: saline with Tween-80): 101 % of control
